# Laboratory results taken from patent US9044013B2, “Glyoxime derivative and pest control agent” (KUMIAI CHEMICAL INDUSTRY CO., LTD., priority 2011, dated 2015).
# System: Nilaparvata lugens Stál (brown rice planthopper)
# Test: Insecticidal action test for Nilaparvata lugens Stál (brown rice planthopper) (immersion test)
# Assay type: in vivo
# Conditions: 144 h, 500 ppm active ingredient (wettable powder diluted with water), sprouting unhulled rice immersed, 10 2-age larvae, 25° C., after 6 days, no repetition, read-out: insect mortality
# Experimental: Insecticidal action test for Nilaparvata lugens Stál (Brown Rice Planthopper) (Immersion Test)
# A wettable powder prepared based on Formulation Example 2 was diluted with water so that the concentration of active ingredient became 500 ppm. In the diluted liquid was immersed sprouting unhulled rice. The immersed rice was placed in a plastic cup of 60 ml. Into the plastic cup were released 10 2-age larvae of Nilaparvata lugens Stál (brown rice planthopper). The cup was covered with a cap and placed in a thermostat of 25° C. After 6 days, the number of living insects was counted and the mortality of insect was calculated using the calculation formula of Mathematical Expression 1. This test was conducted with no repetition. Insect mortality(%)=[1−(number of living insects)/(number of tested insects)]×100 [Mathematical Expression 1]
# The compound Nos. of the compounds which gave an insect mortality of 90% or higher in the above test, are shown below.
row,Structure (SMILES),mortality at 500 ppm [%]
1,"CCCON=C(N)C(C#N)=NOCCC [1-072, 3-Amino-2,3-Bis(Propoxyimino)Propionitrile]",≥ 90
2,"CCCON=C(N)C(C#N)=NOC(C)C [1-073, 3-amino-2-isopropoxyimino-3-propoxyiminopropionitrile]",≥ 90
3,"CC(C)ON=C(N)C(C#N)=NOC(C)C [1-096, 3-amino-2,3-bis(isopropoxyimino)propionitrile]",≥ 90
4,"CC(C)ON=C(C#N)C(N)=NO [1-004, 3-amino-3-hydroxyimino-2-isopropoxyiminopropionitrile]",≥ 90
